{
  "source": "patent US20070249670A1",
  "about": "“Glycogen Phosphorylase Inhibitor Compounds and Pharmaceutical Compositions Thereof” (SMITHKLINE BEECHAM CORPORATION, priority 2004, published 2007)",
  "note": "pIC50: −log10 of the molar value.",
  "data": [
    {"target": "T1, human liver glycogen phosphorylase a (HLGPa) (Homo sapiens, UniProt P06737)", "T1 construct": "creating a full-length cDNA fused at the 5′ end to codons for methionine-glycine-alanine-histidine; 6xHis tag (leader Met-Gly-Ala-His6-Gly-Gly) (N); made in house; host or cells: E. coli (bacterial expression plasmid pTXK1007LTev)", "T1 sequence (P06737 2-847 limits assumed)": "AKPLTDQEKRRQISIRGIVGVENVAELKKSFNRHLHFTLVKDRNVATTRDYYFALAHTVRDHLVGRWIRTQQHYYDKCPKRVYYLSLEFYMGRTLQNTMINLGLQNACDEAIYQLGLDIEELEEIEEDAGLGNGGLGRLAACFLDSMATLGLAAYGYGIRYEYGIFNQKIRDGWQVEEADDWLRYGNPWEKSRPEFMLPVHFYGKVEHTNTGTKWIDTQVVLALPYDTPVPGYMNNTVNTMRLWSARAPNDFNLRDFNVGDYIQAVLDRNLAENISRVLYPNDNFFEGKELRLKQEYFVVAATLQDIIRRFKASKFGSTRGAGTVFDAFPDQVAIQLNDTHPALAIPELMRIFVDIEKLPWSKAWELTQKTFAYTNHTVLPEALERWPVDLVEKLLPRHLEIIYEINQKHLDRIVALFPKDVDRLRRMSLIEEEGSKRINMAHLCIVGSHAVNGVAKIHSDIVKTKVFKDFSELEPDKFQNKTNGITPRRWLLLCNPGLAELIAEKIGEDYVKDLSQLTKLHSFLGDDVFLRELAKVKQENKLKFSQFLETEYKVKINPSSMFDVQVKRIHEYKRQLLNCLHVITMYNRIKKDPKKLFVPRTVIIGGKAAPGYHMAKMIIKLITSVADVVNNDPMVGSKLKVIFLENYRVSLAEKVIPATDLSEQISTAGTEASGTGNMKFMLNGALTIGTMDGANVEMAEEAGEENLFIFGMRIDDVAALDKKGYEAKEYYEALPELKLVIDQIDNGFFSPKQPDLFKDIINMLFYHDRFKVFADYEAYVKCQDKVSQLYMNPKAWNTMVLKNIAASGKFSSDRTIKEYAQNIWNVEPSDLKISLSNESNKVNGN", "assay": "Human liver glycogen phosphorylase a enzymatic activity assay (coupled, fluorescent resorufin readout, with and without 10 mM glucose)", "format": "biochemical", "conditions": "human liver glycogen phosphorylase a; table does not say whether with or without 10 mM glucose", "values": [
      {"smiles": "CCOC(=O)C[C@H](NC(=O)c1cc2ccccc2cc1NC(=O)Nc1c(C)cc(C)cc1C)C(=O)O", "note": "[Example 363, (2S)-4-(ethyloxy)-4-oxo-2-({[3-({[(2,4,6-trimethylphenyl)amino]carbonyl}amino)-2-naphthalenyl]carbonyl}amino)butanoic acid]", "pIC50": 6.44},
      {"smiles": "O=C(O)C[C@H](NC(=O)c1ccc(F)cc1NC(=O)Nc1c(Cl)cccc1Cl)C(=O)O", "note": "[Example 364, N-{[2-({[(2,6-dichlorophenyl)amino]carbonyl}amino)-4-fluorophenyl]carbonyl}-L-aspartic acid]", "pIC50": 5.89},
      {"smiles": "Cc1cc(C)c(NC(=O)Nc2cc(F)ccc2C(=O)N[C@@H](CC(=O)O)C(=O)O)c(C)c1", "note": "[Example 365, N-{[4-fluoro-2-({[(2,4,6-trimethylphenyl)amino]carbonyl}amino)phenyl]carbonyl}-L-aspartic acid]", "pIC50": 5.77},
      {"smiles": "CCOC(=O)C[C@H](NC(=O)c1ccc(-c2ccc(OC)cc2)cc1NC(=O)Nc1c(C)cc(C)cc1C)C(=O)OCc1ccccc1", "note": "[Example 366, 4-ethyl 1-(phenylmethyl)N-{[4′-(methyloxy)-3-({[(2,4,6-trimethylphenyl)amino]carbonyl}amino)-4-biphenylyl]carbonyl}-L-aspartate]", "pIC50": 4.95},
      {"smiles": "CCOC(=O)C[C@H](NC(=O)c1ccc(-c2ccc(OC)cc2)cc1NC(=O)Nc1c(C)cc(C)cc1C)C(=O)O", "note": "[Example 367, (2S)-4-(ethyloxy)-2-({[4′-(methyloxy)-3-({[(2,4,6-trimethylphenyl)amino]carbonyl}amino)-4-biphenylyl]carbonyl}amino)-4-oxobutanoic acid]", "pIC50": 6.19},
      {"smiles": "CCOC(=O)C[C@H](NC(=O)c1ccc(-c2ccc(OC)cc2)cc1NC(=O)Nc1c(C)cc(Br)cc1C)C(=O)OCc1ccccc1", "note": "[Example 368, 4-ethyl 1-(phenylmethyl) N-{[3-({[(4-bromo-2,6-dimethylphenyl)amino]carbonyl}amino)-4′-(methyloxy)-4-biphenylyl]carbonyl}-L-aspartate]", "pIC50": 5.25},
      {"smiles": "CCCc1cc(C)c(NC(=O)Nc2cc(-c3ccc(OC)cc3)ccc2C(=O)N[C@@H](CC(=O)OCC)C(=O)O)c(C)c1", "note": "[Example 369, (2S)-2-({[3-({[(2,6-dimethyl-4-propylphenyl)amino]carbonyl}amino)-4′-(methyloxy)-4-biphenylyl]carbonyl}amino)-4-(ethyloxy)-4-oxobutanoic acid]", "pIC50": 7.03},
      {"smiles": "CCCc1cc(C)c(NC(=O)Nc2cc(-c3ccc(OC)cc3)ccc2C(=O)N[C@@H](CC(=O)O)C(=O)O)c(C)c1", "note": "[Example 370, N-{[3-({[(2,6-dimethyl-4-propylphenyl)amino]carbonyl}amino)-4′-(methyloxy)-4-biphenylyl]carbonyl}-L-aspartic acid]", "pIC50": 8.70},
      {"smiles": "COC(=O)[C@H](CC(=O)OC(C)(C)C)NC(=O)c1ccc(-c2ccc(OC)cc2)cc1NC(=O)Nc1c(C)cc(C)cc1C", "note": "[Example 371, 4-(1,1-dimethylethyl) 1-methyl N-{[4′-(methyloxy)-3-({[(2,4,6-trimethylphenyl)amino]carbonyl}amino)-4-biphenylyl]carbonyl}-L-aspartate]", "pIC50": 4.87},
      {"smiles": "COC(=O)[C@H](CC(=O)O)NC(=O)c1ccc(-c2ccc(OC)cc2)cc1NC(=O)Nc1c(C)cc(C)cc1C", "note": "[Example 372, (3S)-4-(methyloxy)-3-({[4′-(methyloxy)-3-({[(2,4,6-trimethylphenyl)amino]carbonyl}amino)-4-biphenylyl]carbonyl}amino)-4-oxobutanoic acid]", "pIC50": 6.00},
      {"smiles": "Cc1cc(C)c(NC(=O)Nc2cc(-c3ccc(F)c(F)c3)ccc2C(=O)N[C@H](C(=O)O)[C@@H](C)OC(C)(C)C)c(C)c1", "note": "[Example 373, N-{[3′,4′-difluoro-3-({[(2,4,6-trimethylphenyl)amino]carbonyl}amino)-4-biphenylyl]carbonyl}-O-(1,1-dimethylethyl)-L-threonine]", "pIC50": 8.30},
      {"smiles": "CCOC(=O)C[C@H](NC(=O)c1ccc(-c2ccc(F)c(F)c2)cc1NC(=O)Nc1c(C)cc(C)cc1C)C(=O)O", "note": "[Example 374, (2S)-2-({[3′,4′-difluoro-3-({[(2,4,6-trimethylphenyl)amino]carbonyl}amino)-4-biphenylyl]carbonyl}amino)-4-(ethyloxy)-4-oxobutanoic acid]", "pIC50": 6.09},
      {"smiles": "Cc1cc(C)c(NC(=O)Nc2cc(-c3ccc(F)c(F)c3)ccc2C(=O)N[C@@H](CC(=O)O)C(=O)O)c(C)c1", "note": "[Example 375, N-{[3′,4′-difluoro-3-({[(2,4,6-trimethylphenyl)amino]carbonyl}amino)-4-biphenylyl]carbonyl}-L-aspartic acid]", "pIC50": 7.37},
      {"smiles": "Cc1cc(C)c(NC(=O)Nc2cc(-c3ccc(F)c(F)c3)ccc2C(=O)N[C@H](CC(=O)O)C(=O)O)c(C)c1", "note": "[Example 376, N-{[3′,4′-difluoro-3-({[(2,4,6-trimethylphenyl)amino]carbonyl}amino)-4-biphenylyl]carbonyl}-D-aspartic acid]", "pIC50": 6.96},
      {"smiles": "COC(=O)[C@H](CC(N)=O)NC(=O)c1ccc(-c2ccc(OC)cc2)cc1NC(=O)Nc1c(C)cc(C)cc1C", "note": "[Example 377, methyl N^2-{[4′-(methyloxy)-3-({[(2,4,6-trimethylphenyl)amino]carbonyl}amino)-4-biphenylyl]carbonyl}-L-asparaginate]", "pIC50": 5.04},
      {"smiles": "COc1ccc(-c2ccc(C(=O)N[C@@H](CC(N)=O)C(=O)O)c(NC(=O)Nc3c(C)cc(C)cc3C)c2)cc1", "note": "[Example 378, N^2-{[4′-(methyloxy)-3-({[(2,4,6-trimethylphenyl)amino]carbonyl}amino)-4-biphenylyl]carbonyl}-L-asparagine]", "pIC50": 7.00},
      {"smiles": "Cc1cc(C)c(NC(=O)Nc2cc(-c3ccc(F)c(F)c3)ccc2C(=O)N[C@@H](CCC(=O)O)C(=O)O)c(C)c1", "note": "[Example 379, N-{[3′,4′-difluoro-3-({[(2,4,6-trimethylphenyl)amino]carbonyl}amino)-4-biphenylyl]carbonyl}-L-glutamic acid]", "pIC50": 7.08},
      {"smiles": "COc1ccc(-c2ccc(C(=O)O)c(NC(=O)Nc3c(C)cc(C)cc3C)c2)cc1", "note": "[Example 380, 4′-(methyloxy)-3-({[(2,4,6-trimethylphenyl)amino]carbonyl}amino)-4-biphenylcarboxylic acid]", "pIC50": 5.70},
      {"smiles": "COc1ccc(-c2ccc(C(=O)O)c(NC(=O)Nc3c(Cl)cc(OC(F)(F)F)cc3Cl)c2)cc1", "note": "[Example 381, 3-{[({2,6-dichloro-4-[(trifluoromethyl)oxy]phenyl}amino)carbonyl]amino}-4′-(methyloxy)-4-biphenylcarboxylic acid]", "pIC50": 5.47},
      {"smiles": "O=C(Nc1sc(-c2ccccc2)cc1C(=O)O)Nc1c(Cl)cccc1Cl", "note": "[Example 382, 2-({[(2,6-dichlorophenyl)amino]carbonyl}amino)-5-phenyl-3-thiophenecarboxylic acid]", "pIC50": 5.93},
      {"smiles": "COC(=O)[C@@H](NC(=O)c1cc(-c2ccccc2)sc1NC(=O)Nc1c(Cl)cccc1Cl)C1CCCCC1", "note": "[Example 383, methyl(2S)-cyclohexyl({[2-({[(2,6-dichlorophenyl)amino]carbonyl}amino)-5-phenyl-3-thienyl]carbonyl}amino)ethanoate]", "pIC50": 5.63},
      {"smiles": "O=C(Nc1sc(-c2ccccc2)cc1C(=O)N[C@H](C(=O)O)C1CCCCC1)Nc1c(Cl)cccc1Cl", "note": "[Example 384, (2S)-cyclohexyl({[2-({[(2,6-dichlorophenyl)amino]carbonyl}amino)-5-phenyl-3-thienyl]carbonyl}amino)ethanoic acid]", "pIC50": 6.64},
      {"smiles": "O=C(Nc1cc(-c2ccc(F)cc2)sc1C(=O)O)Nc1c(Cl)cccc1Cl", "note": "[Example 385, 3-({[(2,6-dichlorophenyl)amino]carbonyl}amino)-5-(4-fluorophenyl)-2-thiophenecarboxylic acid]", "pIC50": 5.94},
      {"smiles": "COC(=O)[C@@H](NC(=O)c1sc(-c2ccc(F)cc2)cc1NC(=O)Nc1c(Cl)cccc1Cl)C1CCCCC1", "note": "[Example 386, methyl(2S)-cyclohexyl({[3-({[(2,6-dichlorophenyl)amino]carbonyl}amino)-5-(4-fluorophenyl)-2-thienyl]carbonyl}amino)ethanoate]", "pIC50": 5.37},
      {"smiles": "O=C(Nc1cc(-c2ccc(F)cc2)sc1C(=O)N[C@H](C(=O)O)C1CCCCC1)Nc1c(Cl)cccc1Cl", "note": "[Example 387, (2S)-cyclohexyl({[3-({[(2,6-dichlorophenyl)amino]carbonyl}amino)-5-(4-fluorophenyl)-2-thienyl]carbonyl}amino)ethanoic acid]", "pIC50": 6.37},
      {"smiles": "Cc1cc(C(=O)O)c(NC(=O)Nc2c(Cl)cccc2Cl)s1", "note": "[Example 388, 2-({[(2,6-dichlorophenyl)amino]carbonyl}amino)-5-methyl-3-thiophenecarboxylic acid]", "pIC50": 4.71},
      {"smiles": "COC(=O)[C@@H](NC(=O)c1cc(C)sc1NC(=O)Nc1c(Cl)cccc1Cl)C1CCCCC1", "note": "[Example 389, methyl(2S)-cyclohexyl({[2-({[(2,6-dichlorophenyl)amino]carbonyl}amino)-5-methyl-3-thienyl]carbonyl}amino)ethanoate]", "pIC50": 4.81}
    ]}
  ]
}
